Patent US7915293B2, “Ubiquitin ligase inhibitors” (Rigel Pharmaceuticals, Inc., priority 2003, dated 2011)

Columns and labels:
A549 cells = test: Cell proliferation assay, photographic image analysis of proliferation, apoptosis and death (PAD assay), A549; assay type: cell-based; parameters: key: “+” indicates that the compound exibits inhibitory activity; “−” indicates that low or no inhibitory activity was observed; conditions: 6 concentrations tested
Method: A549 (ATCC# CCL-185), HeLa (ATCC# CCL-2), HCT116 (ATCC# CCL-247), and H1299 (ATCC# CRL-5803) cells were maintained in T175 flasks following the ATCC recommended media and handling procedures. Flasks reaching approximately 70% confluency were trypsinized and resuspended in RPMI media (Cell-Gro catalog number 10-040-CM) modified to contain 5% FBS, 100 ug/mlPen/Strep (Cell-Gro catalog number 30-002-CL), and 0.3 mg/ml L-Glutamine (Cell-Gro catalog number 25-003-CL). A 20,000 cells/ml solution was made for plating. Cells were plated in black Packard 96 well plates by placing 100 μl per well (2,000 cells per well).
Compounds and additional media were added 24 hours after cell plating. A compound master plate was created with concentrations 500 times greater than the final concentration added to the cells. All compound testing was done in duplicate using 6.3 fold dilutions starting with 10 mM. All outside wells (and 4 internal wells) were DMSO controls. Taxol and at least one additional control were run on all plates. Three microliters of the compound master plate were added to deep well blocks containing 750 μl of RPMI media. One hundred microliters were transferred from the compound/media deep well blocks to the plated cells resulting in a 500 fold dilution of the compounds. Cells were grown at 37° C., 5% CO2 for 48 hours.
Cells to be analyzed by photography were fixed and stained. One hundred microliters of media were removed and 100 μl of 9.3% […] was added to each well. Plates were left on the benchtop for 45 minutes. A staining solution containing 1.55 μl of 1 mg/ml DAPI added to 18.75 ml PBS was warmed for 15 minutes at 37° C. The cells were aspirated prior to washing with 100 μl of PBS. Seventy microliters of PBS were aspirated and 170 μl of the DAPI solution were added to each well of fixed cells. Plates were left at room temperature for one hour then aspirated and washed twice with 100 μl of PBS. The stained cells were left at 4° C. for a minimum of 16 hours before photographic analysis with Array Scan II (Cellomics). Analysis of the photographic images to determine numbers of live cells (proliferation), apoptotic cells and dead cells, were according to the methods described in U.S. Provisional Patent Application Ser. No. 60/406,714, which incorporated herein in its entirety.

[1] = molecular target: E3 (His-APC11/APC2-"APC") (Homo sapiens, UniProt Q9NYG5+Q9UJX6); test: Plate-based E3 ligase assay (APC FLAG), auto-ubiquitination; assay type: biochemical; parameters: key: “+” indicates that the compound exibits inhibitory activity; “−” indicates that low or no inhibitory activity was observed; conditions: for APC Flag 8 pt: 8 concentrations tested; for APC Flag (2 pt): 2 concentrations tested
Sequence of E3 (His-APC11/APC2-"APC") (Q9NYG5 whole entry): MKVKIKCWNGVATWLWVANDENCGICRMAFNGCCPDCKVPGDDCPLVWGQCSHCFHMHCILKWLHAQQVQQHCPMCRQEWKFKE
Sequence of E3 (His-APC11/APC2-"APC") (Q9UJX6 whole entry): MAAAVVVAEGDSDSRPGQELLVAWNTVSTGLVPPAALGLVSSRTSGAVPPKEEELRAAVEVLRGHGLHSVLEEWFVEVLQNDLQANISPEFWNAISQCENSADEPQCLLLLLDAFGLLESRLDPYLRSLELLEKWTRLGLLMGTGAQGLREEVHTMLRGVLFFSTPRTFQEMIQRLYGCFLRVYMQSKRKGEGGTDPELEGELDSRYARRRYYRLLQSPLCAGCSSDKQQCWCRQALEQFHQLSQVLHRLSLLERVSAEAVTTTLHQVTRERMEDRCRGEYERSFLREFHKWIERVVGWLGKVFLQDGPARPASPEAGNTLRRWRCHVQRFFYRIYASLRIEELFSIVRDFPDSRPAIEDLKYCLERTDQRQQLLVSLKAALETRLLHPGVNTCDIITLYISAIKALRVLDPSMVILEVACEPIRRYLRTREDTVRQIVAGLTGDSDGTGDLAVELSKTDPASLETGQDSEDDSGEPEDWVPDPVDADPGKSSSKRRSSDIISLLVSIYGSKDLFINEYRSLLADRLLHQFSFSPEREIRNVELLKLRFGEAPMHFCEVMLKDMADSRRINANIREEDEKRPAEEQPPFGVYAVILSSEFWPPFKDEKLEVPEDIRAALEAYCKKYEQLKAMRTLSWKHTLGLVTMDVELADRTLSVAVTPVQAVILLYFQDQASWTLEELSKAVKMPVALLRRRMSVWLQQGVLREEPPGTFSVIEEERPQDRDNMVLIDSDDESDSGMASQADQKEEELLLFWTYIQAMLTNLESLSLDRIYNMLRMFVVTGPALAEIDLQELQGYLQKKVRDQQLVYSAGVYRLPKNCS
Method: E3 (His-APC11/APC2-“APC”) auto-ubiquitination was measured as described in U.S. patent application Ser. No. 09/826,312 (Publication No. US-2002-0042083-A1), which is incorporated herein in its entirety. Details of the protocol are described below. Activity in the presence of the compound was determined relative to a parallel control in which only DMSO was added. Values of the IC50 were typically determined using 6 or 8 different concentrations of the compound, although as few as 2 concentrations may be used to approximate the IC50 value.
Nickel-coated 96-well plates (Pierce 15242) were blocked for 1 hour with 100 μl of blocking buffer at room temperature. The plates were washed 4 times with 225 μl of 1×PBS and 80 μl of the reaction buffer were added that contained 100 ng/well of Flag-ubiquitin. To this, 10 μl of the test compound diluted in DMSO were added. After the test compound was added, 10 μl of E1 (human), E2 (Ubch5c), and APC in Protein Buffer was added to obtain a final concentration of 5 ng/well of E1, 20 ng/well of E2 and 100 ng/well of APC. The plate were shaken for 10 minutes and incubated at room temperature for 1 hour. After incubation, the plates were washed 4 times with 225 μl of 1×PBS and 100 μl/well of Antibody Mix were added to each well. The plates were incubate at room temperature for another hour after which they were washed 4 times with 225 μl of 1×PBS and 100 μl/well of Lumino substrate were added to each well. The luminescence was measured by using a BMG luminescence microplate reader.
To prepare the Blocking Buffer (1 liter; 1% Casein in 1×PBS), 10 grams of Casein (Hammersten Grade Casein from Gallard-Schlesinger Inc. #440203) were placed into 1 liter of 1×PBS, stirred on a hot plate and kept between 50-60° C. for an hour. The buffer was allowed to cool to room temperature and then filtered using a Buchner Funnel (Buchner filter funnel 83 mm 30310-109) and Whatman filter paper (Whatman Grade No. 1 Filter paper 28450-070). It was stored at 4° C. until used.
The reaction buffer consisted of 62.5 mM Tris pH 7.6 (Trizma Base—Sigma T-8524), 3 mM MgCl2 (Magnesium Chloride—Sigma M-2393), 1 mM DTT (Sigma D-9779), 2.5 mM ATP (Roche Boehringer Mann Corp. 635-316), 100 ng/well of Flag-ubiquitin, 0.1% BSA (Sigma A-7906), and 0.05% Tween-20 (Sigma P-7949).
The Protein Buffer consisted of 20 mM Tris pH 7.6, 10% glycerol (Sigma G-5516) and 1 mM DTT.
The antibody mix consisted of 0.25% BSA (Sigma A-7906) in 1×PBS, 1/50,000 anti-Flag (Sigma F-3165), 1/100,000 of anti-Mouse IgG-HRP (Jackson Immunoresearch #115-035-146).
The substrate mix consisted of SuperSignal Substrate from Pierce (catalog number 37070ZZ) and was prepared by mixing 100 ml of the peroxide solution, 100 ml of the enhancer solution and 100 ml of Milli-Q® water.

| Structure (SMILES) | PAD Assay, A549 6 pt (A549 cells) | APC Flag 8 pt [1] | APC Flag (2 pt) [1] |
| --- | --- | --- | --- |
| N=C(NS(=O)(=O)c1cc(Cl)c(Oc2ccc([N+](=O)[O-])cc2Cl)c(Cl)c1)c1cccnc1 [Example 26, N-{[3,5-dichloro-4-(2-chloro-4-nitrophenoxy)phenyl]sulfonyl}pyridine-3-carboximidamide] | + | − |  |
| N=C(CCl)NS(=O)(=O)c1cc(Cl)c(Oc2ccc([N+](=O)[O-])cc2)c(Cl)c1 [Example 31, 2-chloro-N-{[3,5-dichloro-4-(4-nitrophenoxy)phenyl]sulfonyl}ethanimidamide] | + | − |  |
| O=[N+]([O-])c1ccc(Oc2c(Cl)cc(S(=O)(=O)N3CCCCC3)cc2Cl)c(Cl)c1 [Example 21, 1-{[3,5-dichloro-4-(2-chloro-4-nitrophenoxy)phenyl]sulfonyl}piperidine] | − | − |  |
| Cc1ccc(N(S(=O)(=O)c2cc(Cl)c(Oc3ccc([N+](=O)[O-])cc3Cl)c(Cl)c2)S(=O)(=O)c2cc(Cl)c(Oc3ccc([N+](=O)[O-])cc3Cl)c(Cl)c2)cc1 [Example 137, 3,5-dichloro-4-(2-chloro-4-nitrophenoxy)-N-(4-methylphenyl)-N-(1,3-dichloro-2-(2-chloro-4-nitrophenoxy)-5-sulfonylbenzene) benzenesulfonamide] |  | + |  |
| O=C(Nc1cc(C(F)(F)F)ccc1Cl)N1CCC(Oc2ncccn2)CC1 [Example 309, N-(2-chloro-5-(trifluoromethyl)phenyl)-4-(pyrimidin-2-yloxy)piperidine-1-carboxamide] |  | − |  |
| O=S(=O)(Nc1cccc(Br)c1)c1ccc(Oc2ccc(Cl)cc2)cc1 [Example 196, N-(3-bromophenyl)-4-(4-chlorophenoxy) benzenesulfonamide] |  |  | − (2 pt) |
| O=C(NCC1CC1)c1cccc(NS(=O)(=O)c2cc(Cl)c(Oc3ccc([N+](=O)[O-])cc3Cl)c(Cl)c2)c1 [Compound 151, N-(cyclopropylmethyl)-3-({[3,5-dichloro-4-(2-chloro-4-nitrophenoxy)phenyl]sulfonyl}amino)benzamide] |  | + |  |
| N#Cc1c(Cl)cccc1Oc1ccc(S(=O)(=O)Nc2cccc(Br)c2)cc1 [Example 180, N-(3-bromophenyl)-4-(3-chloro-2-cyano-phenoxy)benzenesulfonamide] |  | − |  |
| O=[N+]([O-])c1ccc(Oc2c(Cl)cc(S(=O)(=O)Nc3cc(OC(F)(F)F)ccc3Br)cc2Cl)c(Cl)c1 [Example 293, N-(2-bromo-5-(trifluoromethoxy)phenyl)-3,5-dichloro-4-(2-chloro-4-nitrophenoxy)benzenesulfonamide] |  | + |  |
| O=C(Nc1cc(Cl)ccc1Cl)N1CCC(Oc2ncccn2)CC1 [Compound 310, N-(2,5-dichlorophenyl)-4-(pyrimidin-2-yloxy)piperidine-1-carboxamide] |  | − |  |
| O=S(=O)(c1ccc(Oc2ccc(Cl)cc2Cl)cc1F)N1CCCCC1 [Example 119, 1-{[4-(2,4-dichlorophenoxy)-2-fluorophenyl]sulfonyl)piperidine] |  | + |  |
| O=C(NCC1CC1)c1ccc(NS(=O)(=O)c2cc(Cl)c(Oc3ccc([N+](=O)[O-])cc3Cl)c(Cl)c2)cc1 [Example 152, N-(cyclopropylmethyl)-4-({[3,5-dichloro-4-(2-chloro-4-nitrophenoxy)phenyl]sulfonyl}amino)benzamide] |  | + |  |
| O=[N+]([O-])c1ccc(Oc2c(Cl)cc(S(=O)(=O)Nc3cc(Cl)cnc3Cl)cc2Cl)c(Cl)c1 [Example 233, 3,5-dichloro-4-(2-chloro-4-nitrophenoxy)-N-(2,5-dichloropyridin-3-yl)benzene-sulfonamide] |  | + |  |
| N=C(NS(=O)(=O)c1cc(Cl)c(Oc2ccc([N+](=O)[O-])cc2Cl)c(Cl)c1)c1ccccc1 [Example 212, N-{[3,5-dichloro-4-(2-chloro-4-nitro-phenoxy)phenyl]sulfonyl}benzene-carboximidamide] |  | − |  |
| N=C(NS(=O)(=O)c1cc(Cl)c(Oc2ccc([N+](=O)[O-])cc2)c(Cl)c1)c1ccc(Cl)cc1 [Example 34, 4-chloro-N-{[3,5-dichloro4-(4-nitrophenoxy)phenyl]sulfonyl}benzenecarboximidamide] |  | − |  |
| Cc1c(Cl)cccc1NS(=O)(=O)c1ccc(Oc2cccc(Cl)c2C#N)cc1 [Example 181, 4-(3-chloro-2-cyanophenoxy)-N-(3-chloro-2-methylphenyl)benzenesulfonamide] |  | − |  |
| CC1CCN(S(=O)(=O)c2cc(Cl)c(Oc3ccc([N+](=O)[O-])cc3Cl)c(Cl)c2)CC1 [Example 19, 1-{[3,5-dichloro-4-(2-chloro-4-nitrophenoxy)phenyl]sulfonyl}-4-methylpiperidine] |  | − |  |
| CN(C)CCCNS(=O)(=O)c1cc(Cl)c(Oc2ccc([N+](=O)[O-])cc2Cl)c(Cl)c1 [Example 131] |  | + |  |
| O=[N+]([O-])c1cccc(Cl)c1Oc1ccc(S(=O)(=O)Nc2ccc(F)c(Cl)c2)cc1 [Example 185, N-(3-chloro-4-fluorophenyl)-4-(2-chloro-6-nitrophenoxy)benzenesulfonamide] |  | − |  |
| CC(C)c1ccccc1NS(=O)(=O)c1cc(Cl)c(Oc2ccc([N+](=O)[O-])cc2Cl)c(Cl)c1 [Example 227, 3,5-dichloro-4-(2-chloro-4-nitrophenoxy)-N-(2-isopropylphenyl)benzenesulfonamide] |  |  | − (2 pt) |
| O=[N+]([O-])c1ccc(F)c(NS(=O)(=O)c2ccc(Oc3ccc([N+](=O)[O-])cc3C(F)(F)F)c(Cl)c2)c1 [Example 260, 3-chloro-N-(2-fluoro-5-nitrophenyl)-4-[4-nitro-2-(trifluoromethyl)phenoxy]benzene-sulfonamide] |  | + |  |
| O=[N+]([O-])c1ccc(Oc2c(Cl)cc(S(=O)(=O)NC3CCNCC3)cc2Cl)c(Cl)c1 [Example 130, 3,5-dichloro-4-(2-chloro-4-nitrophenoxy)-N-piperidin-4-ylbenzenesulfonamide] |  | − |  |
| CC(=O)c1cccc(NS(=O)(=O)c2cc(Cl)c(Oc3ccc([N+](=O)[O-])cc3Cl)c(Cl)c2)c1 [Example 186, N-(3-acetylphenyl)-3,5-dichloro-4-(2-chloro-4-nitrophenoxy)benzenesulfonamide] |  |  | − (2 pt) |
